Assay results as given in patent US20240417689A1, “ENGINEERING OF STRATIFIED CELL SHEETS USING MESENCHYMAL STEM CELLS” (Emmaus Life Sciences, Inc, priority 2021, published 2024).
Entries after “also recorded” stand apart in the source; their conditions may differ.

Columns and labels:
adipose stromal cells [1] = assay: Chondrogenic differentiation of stem cells in differentiation medium supplemented with ROCK inhibitor; type: cell-based, human; conditions: for Induction of stem cell differentiation: differentiation medium supplemented with ROCK inhibitor; for Cell differentiation noticed / started, time after initial treatment with ROCK inhibitor: MesenCult-ACF Chondrogenic Differentiation medium supplemented with ROCK inhibitor, dose dependent
Protocol: (§1) Chondrocyte Cell Sheet: ASC were cultured with RoosterNourish™-MSC-XF, until the cells reached confluence. From that day, ASC were cultured with MesenCult™-ACF Chondrogenic Differentiation Kit (Stem Cell, Vancouver, Canada). The culture media was replaced every 2 days, up to X days from the initial seeding day depending on the technique used to engineer the cell sheet.
(§2) One of two techniques was used to complete the engineering process: 1) To stop centrifuge tension, the edges of the cell sheets were cut, and the cell sheet was left resting in almost absence of culture media (MesenCult™-ACF Chondrogenic Differentiation) to let the cell sheets' edges attached to the cell culture surface, for 20 minutes. The differentiation culture media (MesenCult™-ACF Chondrogenic Differentiation) was added to the cell culture dish and the chondrocyte cell sheet was engineered up to 21 days after the initial day of differentiation. 2) ROCK inhibitor Y-27632 at 10 μM or ROCK inhibitor Y-33075 at 1 μM were used from the first day of differentiation.

adipose stromal cells [2] = assay: Toxicity of ROCK inhibitor for the cells during differentiation; type: cell-based; conditions: dose response
adipose stromal cells [3] = assay: Engineering of chondrocyte cell sheets with ROCK inhibitor (detachment, time of formation); type: cell-based, human; conditions: for Success in engineering the chondrocyte multilayer cell sheets: ROCK 1 and 2 inhibitors; for Detachment of the cell sheets / Time in which cell sheets were formed: Y-27632 at 10 μM or Y-33075 at 1 μM from the first day of differentiation; for Reduction of the time of differentiation: Y-27632 at 10 μM or Y-33075 at 1 μM, versus 21 days with edge cutting
Protocol: as §1, §2
Undifferentiated ASCCS were engineered in 10 days, using a chemically defined culture media. Differentiated ASCCS into Chondrocyte (treated with ROCK inhibitor from 1 to 20 μM), […] and osteoblast were also engineered using chemically defined and animal free culture media, in 14, 21 and 14 days, respectively. The transmittance of the ASCCS were measured over time from the time the cells reached confluence until the cell sheets were harvested.

Row | Structure (SMILES) | Induction of stem cell differentiation (adipose stromal cells [1]) | Toxicity for the cells (adipose stromal cells [2]) | Cell differentiation noticed / started, time after initial treatment with ROCK inhibitor (adipose stromal cells [1]) | Success in engineering the chondrocyte multilayer cell sheets (adipose stromal cells [3]) | Detachment of the cell sheets (adipose stromal cells [3]) | Time in which cell sheets were formed (adipose stromal cells [3]) | Reduction of the time of differentiation (adipose stromal cells [3])
1 | CC(C)NC(=O)COc1cccc(-c2nc(Nc3ccc4[nH]ncc4c3)c3ccccc3n2)c1 [Belumosudil, 2-[3-[4-(1H-Indazol-5-ylamino)quinazolin-2-yl]phenoxy]-N-propan-2-ylacetamide] | failed to induce stem cell differentiation; also recorded: does not induce cell differentiation | toxic for the cells in a dose response, inducing cell death | – | – | – | – | –
2 | Cc1cncc2cccc(S(=O)(=O)N3CCCNC[C@@H]3C)c12 [H-1152, (S)-4-methyl-5-((2-methyl-1,4-diazepan-1-yl)sulfonyl)isoquinoline] | induced the cell differentiation but it is less efficient than Y-27632 and Y-33075 | – | 2 days | – | – | – | –
3 | C[C@@H](N)[C@H]1CC[C@H](C(=O)Nc2ccncc2)CC1 [Y-27632, (1R,4r)-4-((R)-1-aminoethyl)-N-(pyridin-4-yl)cyclohexane-1-carboxamide] | – | – | 2 days | used with success | didn't detach | 2 weeks | 33%
4 | C[C@@H](N)c1ccc(C(=O)Nc2ccnc3[nH]ccc23)cc1 [Y-33075, (R)-4-(1-aminoethyl)-N-(1H-pyrrolo[2,3-b]pyridin-4-yl)benzamide] | – | – | 1 days | used with success | didn't detach | 2 weeks | 33%
